In general, Ki refers to the dissociation constant of the complex between target and ligand, obtained from inhibition or displacement.

One test deals with CCK A. The experiment in a line: CCK receptor binding (CCK A). The note with it: assay not described. On the procedure: (§1) The biological activity of compounds of the present invention was evaluated employing an initial screening test which rapidly and accurately measured the binding of the tested compound to known CCK receptor sites. […] (See Hays et al, Neuropeptides 1:53-62, 1980; and Satuer et al, Science 208:1155-1156, 1980.
(§2) The inhibition constant (Ki) of the test compound was then calculated according to the Cheng-Prusoff equation: [formula] where [L] is the concentration of radiolabel and Ka is the equilibrium dissociation constant.

A further test deals with T1, CCK B (Mus musculus, UniProt P56481).
T1 construct: from tissue; host or cells: cerebral cortex of male CFLP mice (30-40 g), washed membranes
T1 sequence (P56481 1-453): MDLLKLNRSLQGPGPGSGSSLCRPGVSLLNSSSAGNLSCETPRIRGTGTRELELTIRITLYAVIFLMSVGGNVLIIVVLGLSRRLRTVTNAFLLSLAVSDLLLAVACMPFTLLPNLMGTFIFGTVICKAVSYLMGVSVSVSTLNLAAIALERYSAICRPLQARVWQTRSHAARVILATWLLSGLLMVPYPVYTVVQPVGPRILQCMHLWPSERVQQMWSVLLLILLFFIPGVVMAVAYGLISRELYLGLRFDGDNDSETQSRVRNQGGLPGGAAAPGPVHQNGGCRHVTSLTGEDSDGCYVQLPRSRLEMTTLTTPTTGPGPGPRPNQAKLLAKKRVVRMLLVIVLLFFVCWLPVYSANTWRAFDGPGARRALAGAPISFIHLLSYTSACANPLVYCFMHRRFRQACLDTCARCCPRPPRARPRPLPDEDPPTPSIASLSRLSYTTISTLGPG
The experiment in a line: CCK receptor binding, displacement of tritiated-pentagastrin from cerebral cortical membranes (CCK B). Further details: species or system mouse (male CFLP). As to conditions: mouse cerebral cortex membranes, 2 nM tritiated-pentagastrin. As to the method:
as §1
In this screening test, the cerebral cortices taken from male CFLP mice weighing between 30-40 g were dissected on ice, weighed, and homogenized in 10 volumes of 50 mM Tris-HCl buffer (pH 7.4 at 0°-4° C.). The resulting suspension was centrifuged, the supernate was discarded, and the pellet was washed by resuspension in Tris-HCl buffer followed by recentrifugation. The final pellet was resuspended in 20 volumes of […] buffer (pH 7.2 at 23° C.) containing 130 mM NaCl, […], […], […], 5 mg/mL bovine albumin, and bacitracin (0.25 mg/ml).
In saturation studies, cerebral cortical membranes were incubated at 23° C. for 120 minutes in a final volume of 500 μliter of Hepes incubation buffer (pH 7.2) together with 0.2-20 nM tritiated-pentagastrin (Amersham International, England).
In the displacement experiments, membranes were incubated with a single concentration (2 nM) of ligand, together with increasing concentrations (10^-11 to […]) of competitive test compound. In each case, the nonspecific binding was defined as that persisting in the presence of the unlabeled octapeptide CCK26-33 (10^-6 M).
Following incubation, radioactivity bound to membranes was separated from that free in solution by rapid filtration through Whatman GF/B filters and washed three times with 4 mL of ice cold Tris-HCl buffer. Filters from samples incubated with tritiated-pentagastrin were placed in polyethylene vials with 4 mL of scintillation cocktail, and the radioactivity was estimated by liquid scintillation spectrometry (efficiency 47-52%).
The specific binding to CCK receptor sites was defined as the total bound tritiated-pentagastrin minus the amount of tritiated-pentagastrin bound in the presence of 10^-6 octapeptide, CCK 26-33.
Saturation curves for specific tritiated-pentagastrin binding to mouse cortical membranes were analyzed by the methods of Scatchard (Ann. New York Acad. Sci. 51:660-672, 1949, and Hill (J. Phvsiol. 40:IV-VIII, 1910, to provide estimates for the maximum number of binding sites (Bmax) and the equilibrium dissociation constant (Ka).
In displacement experiments, inhibition curves were analyzed by either logit-log plots or the iterative curve fitting computer program ALLFIT (DeLean, Munson and Redbard, 1978) to provide estimates of the IC50 and nH (apparent Hill coefficient) values). (IC50 values were defined as the concentration of test compound required to produce 50% inhibition of specific binding.)
as §2

As to `CC1(C)[C@H]2CC[C@]1(C)[C@H](OC(=O)N[C@](C)(Cc1c[nH]c3ccccc13)C(=O)N[C@@H]1Cc3ccccc3[C@H]1O)C2` [Compound 3, Carbamic acid, [2-[(2,3-dihydro 1-hydroxy-1H-inden-2-yl)amino]-1-(1H-indol-3-ylmethyl)-1-methyl-2-oxoethyl]-, 1,7,7-trimethylbicyclo-[2.2.1]hept-2-yl ester, [1S-[1α,2β[S*(1S*,2S*)],4α]]-], the inhibition constant Ki turned out to be 3870 nM on CCK A and 30 nM at CCK B.

As to `CC1(C)[C@H]2CC[C@]1(C)[C@H](OC(=O)N[C@](C)(Cc1c[nH]c3ccccc13)C(=O)N[C@H]1Cc3ccccc3[C@@H]1O)C2` [Compound 2, Carbamic acid, [2-[(2,3-dihydro-1-hydroxy-1H-inden-2-yl)amino]-1-1H-indol-3-ylmethyl)-2-methyl-2-oxoethyl]-, 1,7,7-trimethylbicyclo-[2.2.1]hept-2-yl ester, [1S*[1α,2β[S-(trans)],4α]]-], the values for the Ki on CCK A and on CCK B were 5300 nM and 111 nM, respectively.

At CCK B, `CC1(C)[C@H]2CC[C@]1(C)[C@H](OC(=O)N[C@](C)(Cc1c[nH]c3ccccc13)C(=O)NC1CCc3ccccc3C1=O)C2` (single isomer, unassigned) [Compound 5, Carbamic acid, [1-(1H-indol-3 ylmethyl)-1-methyl-2-oxo-2-[(1-2,3,4-tetrahydro-1-oxo-2-naphthalenyl)amino]ethyl]-, 1,7,7-trimethylbicyclo[2.2.1.1]hept-2-yl ester] gave a Ki of 59 nM.

Take `CC1(C)[C@H]2CC[C@]1(C)[C@H](OC(=O)N[C@](C)(Cc1c[nH]c3ccccc13)C(=O)NC1c3ccccc3CC1O)C2` (stereo partly drawn) [Compound 1, Carbamic acid, [2-[(2,3-dihydro-2-hydroxy-1H-inden-1-yl)amino]-1-(1H-indol-3-ylmethyl)-1-methyl-2-oxoethyl]-, 1,7,7-trimethylbicyclo-[2.2.1]hept 2-yl ester]: the Ki at CCK B was 280 nM.

On to `CC(Cc1c[nH]c2ccccc12)(NC(=O)OC1C2CC3CC(C2)CC1C3)C(=O)NC1CCCc2ccccc21` (racemic) [Compound 6, Carbamic acid, [1-(1H-indol-3-ylmethyl)-1-methyl-2-oxo-2-[(1,2,3,4-tetrahydro-1-naphthalenyl)amino]ethyl]-, tricyclo[3.3.1.1^3,7]-dec-2-yl ester, (±)-], for which the figures for the Ki at CCK A and on CCK B were 5220 nM and 45 nM, respectively.

`C[C@](Cc1c[nH]c2ccccc12)(NC(=O)OC1C2CC3CC(C2)CC1C3)C(=O)N1CCc2ccccc2C1` (stereo partly drawn) [Compound 8, Carbamic acid, [1-(1H-indol-3-ylmethyl)-1-methyl-2-oxo-2-(1,2,3,4-tetrahydro-2-isoquinolinyl)ethyl]-, tricyclo[3.3.1.1^3.7]-dec-2-yl ester, (R)-] returned a Ki on CCK B of 450 nM.

For `CC(Cc1c[nH]c2ccccc12)(NC(=O)OC1C2CC3CC(C2)CC1C3)C(=O)NC1CCc2ccccc2C1` (racemic) [Compound 7, Carbamic acid, [1-1H-indol-3-ylmethyl)-1-methyl-2-oxo-2 [(1,2,3,4-tetrahydro-2-naphthalenyl)amino]ethyl]-, tricyclo[3.3.1.1^3,7]-dec-2-yl ester, (±)-], the Ki on CCK B worked out at 330 nM.

On to `CC1(C)[C@H]2CC[C@]1(C)[C@H](OC(=O)N[C@](C)(Cc1c[nH]c3ccccc13)C(=O)NC1CCc3ccccc3C1=O)C2` (single isomer, unassigned) [Compound 4, Carbamic acid, [1-(1H-indol-3-ylmethyl)-1 methyl-2-oxo-2-[(1,2,3,4-tetrahydro-1-oxo 2-naphthalenyl)amino]ethyl]-, 1,7,7-trimethyl-bicyclo[2.2.1]hept-2-yl ester], for which the values for the Ki on CCK A and on CCK B were 7620 nM and 94 nM, respectively.
